Drawing on PubChem BioAssay (NCI), this text covers GI50 and TGI for 8 molecules.

Test systems include BT-549 breast; CCRF-CEM leukemia; HOP-62 NSCLC; K-562 leukemia; NCI-H460 lung; NCI-H522 lung; NCI/ADR-RES ovarian; SF-539 CNS; TK-10 renal; UACC-62 melanoma.
Holding throughout (test): growth of human tumour cells (NCI), 48 h

Each structure is given as a SMILES string.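 How tested: cells in 96-well plates exposed to compound for 48 hours at five concentrations. The concentration for 50% growth inhibition is given as GI50. TGI: total growth inhibition.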

Turning to `CN1CC[C@@H](NC(=O)Nc2ccc(C#N)cc2)C[C@@H]1c1nc2ccccc2[nH]1`, the GI50 with BT-549 breast is greater than 100 µM; in the assay with CCRF-CEM leukemia, 97.4 µM; in the assay on HOP-62 NSCLC, greater than 100 µM; in the assay on K-562 leukemia it was greater than 100 µM; in the assay with NCI-H460 lung, greater than 100 µM; in the assay on NCI-H522 lung it was greater than 100 µM. Besides, the GI50 in the assay on NCI/ADR-RES ovarian was greater than 49.8 µM; in the assay with SF-539 CNS, greater than 100 µM; in the assay with TK-10 renal, greater than 100 µM; in the assay with UACC-62 melanoma, 98.8 µM. Moreover, the TGI with BT-549 breast, in the assay on CCRF-CEM leukemia, in the assay with HOP-62 NSCLC, in the assay with K-562 leukemia, in the assay on NCI-H460 lung and with NCI-H522 lung was greater than 100 µM in each case. For the same molecule, the TGI is greater than 86.6 µM in the assay with NCI/ADR-RES ovarian, greater than 100 µM with SF-539 CNS, greater than 100 µM with TK-10 renal and greater than 100 µM in the assay with UACC-62 melanoma.

Consider `CN(C)CC1CC/C(=C\c2ccc(O)cc2)C1=O` (stereo not given), for which the TGI with BT-549 breast stood at 3.73 µM; in the assay on CCRF-CEM leukemia, 3.53 µM; with HOP-62 NSCLC it was 33.6 µM; in the assay on K-562 leukemia, 5.76 µM; in the assay with NCI-H460 lung it was 37.2 µM; in the assay on NCI-H522 lung it was 3.17 µM. The TGI in the assay on NCI/ADR-RES ovarian was 21.5 µM; with SF-539 CNS, 17.1 µM; in the assay with TK-10 renal, 9.01 µM; with UACC-62 melanoma, 15.5 µM.

As to `O=C(/C=C/c1ccc(O)cc1)c1ccc(O)cc1`, the TGI in the assay with BT-549 breast is greater than 75.3 µM; in the assay on CCRF-CEM leukemia, greater than 85 µM; with HOP-62 NSCLC, 49.1 µM; in the assay with K-562 leukemia it was greater than 82.3 µM; in the assay on NCI-H460 lung, 72.5 µM; in the assay with NCI-H522 lung, 9.22 µM. Besides, the TGI is greater than 63.1 µM in the assay on NCI/ADR-RES ovarian, 54.2 µM in the assay with SF-539 CNS, greater than 100 µM with TK-10 renal and greater than 66.8 µM in the assay on UACC-62 melanoma.

As to `O=C(/C(=C/c1ccc([N+](=O)[O-])cc1)SCc1ccccc1)c1ccc(Cl)cc1`, the GI50 was 2.4 µM in the assay with BT-549 breast; 2.12 µM in the assay with CCRF-CEM leukemia; 4.52 µM in the assay with HOP-62 NSCLC; 2.65 µM with K-562 leukemia; 5.34 µM in the assay on NCI-H460 lung; 3.96 µM with NCI-H522 lung. The GI50 in the assay on NCI/ADR-RES ovarian is 3.38 µM; in the assay with SF-539 CNS, 2.64 µM; with TK-10 renal it was 5.11 µM; in the assay with UACC-62 melanoma, 2.56 µM. Moreover, the TGI in the assay with BT-549 breast is 6.39 µM; in the assay on CCRF-CEM leukemia it was greater than 100 µM; in the assay on HOP-62 NSCLC, 17.7 µM; in the assay with K-562 leukemia, greater than 100 µM; in the assay on NCI-H460 lung, 20.3 µM; in the assay with NCI-H522 lung, 10.5 µM. For the same molecule, the TGI in the assay with NCI/ADR-RES ovarian is 17.7 µM; in the assay on SF-539 CNS, 8.2 µM; in the assay on TK-10 renal, 18.1 µM; in the assay on UACC-62 melanoma, 9.12 µM.

As for `CC1SC(c2ccc(F)cc2)N(NC(=O)C(O)c2ccccc2)C1=O` (stereo not given), the GI50 with BT-549 breast, in the assay with CCRF-CEM leukemia, in the assay with HOP-62 NSCLC, in the assay on K-562 leukemia, in the assay with NCI-H460 lung and with NCI-H522 lung was greater than 100 µM in each case. Further, the GI50 in the assay on NCI/ADR-RES ovarian, in the assay on SF-539 CNS, in the assay with TK-10 renal and in the assay on UACC-62 melanoma was greater than 100 µM each time. The TGI in the assay with BT-549 breast, in the assay with CCRF-CEM leukemia, with HOP-62 NSCLC, with K-562 leukemia, with NCI-H460 lung and with NCI-H522 lung was greater than 100 µM in each case. In addition, the TGI with NCI/ADR-RES ovarian, with SF-539 CNS, with TK-10 renal and in the assay with UACC-62 melanoma was greater than 100 µM each time.

Turning to `Nc1ccccc1SC(CC(=O)c1ccccc1)c1cccc([N+](=O)[O-])c1` (stereo not given), the GI50 in the assay on BT-549 breast was 17 µM; with CCRF-CEM leukemia, 16 µM; with HOP-62 NSCLC, 15.5 µM; in the assay on K-562 leukemia, 3.72 µM; in the assay with NCI-H460 lung, 19.4 µM; in the assay with NCI-H522 lung, 15 µM. Moreover, the GI50 in the assay on NCI/ADR-RES ovarian is 20.4 µM; in the assay with SF-539 CNS, 16.8 µM; in the assay on TK-10 renal, 20.7 µM; with UACC-62 melanoma, 13.8 µM. The TGI with BT-549 breast was 30.9 µM; with CCRF-CEM leukemia it was 50.8 µM; in the assay on HOP-62 NSCLC, 28.9 µM; in the assay on K-562 leukemia it was 13.6 µM; in the assay with NCI-H460 lung, 38.8 µM; in the assay with NCI-H522 lung, 29.5 µM. Besides, the TGI in the assay with NCI/ADR-RES ovarian turned out to be 42.8 µM; in the assay with SF-539 CNS, 30.7 µM; in the assay with TK-10 renal, 35.1 µM; in the assay on UACC-62 melanoma, 26.9 µM.

`COc1ccc2nc3cc(Cl)ccc3c(NCCNCC(C)O)c2c1` (stereo not given): the GI50 in the assay on BT-549 breast is 7.92 µM; with CCRF-CEM leukemia it was 2.46 µM; in the assay on HOP-62 NSCLC it was 1.31 µM; in the assay on K-562 leukemia, 1.28 µM; with NCI-H460 lung, 0.668 µM; in the assay with NCI-H522 lung, 1.48 µM. In addition, the GI50 is 3.08 µM in the assay with NCI/ADR-RES ovarian, 1.65 µM in the assay with SF-539 CNS, 2.85 µM in the assay with TK-10 renal and 2.01 µM in the assay with UACC-62 melanoma. The TGI is 21.8 µM in the assay on BT-549 breast; 8.66 µM in the assay with CCRF-CEM leukemia; 4.09 µM in the assay with HOP-62 NSCLC; 10 µM in the assay with K-562 leukemia; 2.99 µM in the assay with NCI-H460 lung; 3.1 µM in the assay on NCI-H522 lung. Moreover, the TGI in the assay on NCI/ADR-RES ovarian turned out to be 14 µM; with SF-539 CNS, 3.51 µM; with TK-10 renal, 8.28 µM; in the assay on UACC-62 melanoma it was 4.31 µM.

For the molecule `COc1ccc2nc(NC(=O)CSc3nnc4n3S(=O)(=O)c3ccccc3N4c3ccccc3)sc2c1`, the GI50 with BT-549 breast is greater than 100 µM; in the assay on CCRF-CEM leukemia, greater than 100 µM; in the assay with HOP-62 NSCLC, 2.14 µM; in the assay with K-562 leukemia, greater than 100 µM; with NCI-H460 lung, greater than 100 µM; in the assay with NCI-H522 lung, 30.4 µM. For the same molecule, the GI50 in the assay on NCI/ADR-RES ovarian was greater than 100 µM; in the assay with SF-539 CNS, greater than 100 µM; with TK-10 renal, greater than 100 µM; in the assay on UACC-62 melanoma, 48.5 µM. In addition, the TGI in the assay with BT-549 breast, in the assay with CCRF-CEM leukemia, with HOP-62 NSCLC, in the assay on K-562 leukemia, in the assay on NCI-H460 lung and with NCI-H522 lung was greater than 100 µM throughout. The TGI in the assay on NCI/ADR-RES ovarian, in the assay on SF-539 CNS, with TK-10 renal and in the assay on UACC-62 melanoma was greater than 100 µM in each case.
